Tests used:
Human IBAT = biological target: T1, Human IBAT (Homo sapiens, UniProt Q12908); experiment: IBAT (h/m) assay, human IBAT-overexpressing cells, 3H-taurocholic acid uptake; type: cell-based; conditions: read-out: hIBAT IC50
T1 construct: expressed in transfected cells; cultured under Puromycin selection
T1 sequence (Q12908 1-348): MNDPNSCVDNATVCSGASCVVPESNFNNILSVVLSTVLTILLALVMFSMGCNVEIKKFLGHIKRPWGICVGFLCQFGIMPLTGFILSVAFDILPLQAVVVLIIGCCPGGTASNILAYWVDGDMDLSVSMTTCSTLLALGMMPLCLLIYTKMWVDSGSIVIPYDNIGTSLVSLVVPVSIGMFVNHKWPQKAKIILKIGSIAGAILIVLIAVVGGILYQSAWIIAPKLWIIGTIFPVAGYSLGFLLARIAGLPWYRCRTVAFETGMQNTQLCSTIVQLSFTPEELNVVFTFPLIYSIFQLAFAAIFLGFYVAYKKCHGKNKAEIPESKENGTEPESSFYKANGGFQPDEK
Procedure: IBAT (h/m) Assay Protocol
10,000 cells (Human or Mouse IBAT-overexpressing cells) were seeded in 96-wells plate (Corning CLS3809) in 200 μL MEM-alpha medium (Gibco 12571-063) supplemented with 10% FBS (Gibco 10438026) containing Puromycin (Gibco A1113803) (10 μg/mL) and incubated at 37° C. in 5% CO2 for 48 hours. After incubation, media was decanted from the wells and cells were washed two times with 300 μL of basal MEM-alpha medium (FBS-free). After decanting basal MEM-alpha medium each time, plates were tapped against paper towel to ensure maximum removal of residual media. Test inhibitor dilutions (highest test concentration being 10 μM, 3-fold serial dilution, 10 points) prepared in DMSO (Sigma D2650) were added in incubation mix (maintaining 0.2% final DMSO concentration) containing 0.25 μM 3H-taurocholic acid (ARC ART-1368) and 5 μM of cold taurocholic acid (Sigma T4009). 50 μL of incubation mix containing test inhibitors was then added to the wells (in duplicate) and the plates were incubated for 20 minutes in a CO2 incubator at 37° C. After incubation, the reaction was stopped by keeping the plates on ice water mix for 2-3 minutes and then the incubation mix was aspirated completely from the wells. The wells were washed two times with 250 μL of chilled unlabeled 1 mM taurocholic acid dissolved in HEPES (Gibco 15630080)-buffered (10 mM) HBSS (Gibco 14175079) (pH 7.4). The plates were tapped against a paper towel after every wash to ensure maximum removal of blocking buffer. 100 μL of MicroScint-20 (PerkinElmer 6013621) was added to the wells and kept overnight at room temperature before reading the plates in TopCount NXT™ Microplate Scintillation and Luminescence Counter from PerkinElmer under 3H Test protocol (set at 120 seconds reading time per well).
Preparation of Test Compound Dilutions
All test compounds were provided in powder form at room temperature. 10 mM DMSO stocks of the test compounds were prepared, aliquoted and stored at −20° C. From the 10 mM DMSO stock of the compounds, a 3-fold serial dilution in DMSO was prepared to get a total of 10 dilutions of the test compounds. 0.5 μL of this dilution in DMSO was added to 250 μL of FBS-free basal media containing 3H-taurocholic acid and cold taurocholic acid to prepare the incubation mixture.

[1] = Bidirectional permeability assay (Caco-2 cells); type: in vitro ADME; conditions: human, pH 7.4, Caco-2, absorptive direction (A2B)
Procedure: Bidirectional Permeability Assay (Caco-2 Cells)
Caco-2 cells (Evotec) were seeded at a density of 70,000 cells/well in Millicell® 24-well cell culture insert plates and maintained in an incubator (37° C., 5% CO2, 95% RH) for 21 days with media change on alternate days.
Stock solutions (10 mM) of the test compounds, atenolol (low permeability marker), propranolol (high permeability marker) and digoxin (substrate for P-gp transport pathway) were prepared in dimethylsulfoxide (DMSO). An intermediate stock solution (1 mM) was prepared by diluting 10 μL of 10 mM master stock solution with 90 μL of neat DMSO. A working stock solution (10 μM) was prepared by diluting 50 μL of 1 mM with 4950 μL of FaSSIF buffer. […]
On the day of assay, Caco-2 monolayers were washed twice with transport buffer (HBSS, pH 7.4) and pre-incubated for 30 min (37° C., 5% CO2, 95% RH) in an incubator. The electrical resistance of the monolayers was measured with a Millicell®-ERS system. […]
Samples were vortexed and centrifuged at 4000 rpm for 10 minutes. […] The concentration of compounds in the samples was analyzed by liquid chromatography tandem mass spectrometry (LC-MS/MS) method using discovery grade bio-analytical method, as applicable.
The mean apparent permeability (Papp, ×10^−6 cm/sec) of the test compounds, atenolol, propranolol and digoxin were calculated as follows: […]

- IC50 (Human IBAT): 1 nM
- Papp A→B at 120 min, 10 µM [1]: 2.2 ×10⁻⁶ cm/s
SMILES: CCCCC1(C)CN(c2ccc(F)cc2)c2cc(SC)c(OCC(O)C(=O)O)cc2S(=O)(=O)C1 (single isomer, unassigned) [1, diastereomer 1]
